Results reported in patent publication US4751295A, “Cephalosporin derivatives” (Bristol-Myers Company, priority 1986, dated 1988).
Converted amounts (≈) assume the structure as drawn. Where two headings read alike, the source gives them in different places.

What was measured:
[1] = system: Penicillinsensitive S. aureus (5 strains); test: MIC, two-fold serial agar dilution, group (G+)-Ia; type: cell-based; details: Staphylococcus aureus, read-out: Geometric Mean of MIC, (G+)-Ia
Method: (§1) In the primary evaluation of the compounds of this invention, the Minimum Inhibitory Concentrations (MIC's) of the compounds were determined by the two-fold serial agar dilution method in Mueller-Hinton agar against 32 strains of test organisms in six groups.
(G+)Ia: Penicillinsensitive S. aureus (5 strains)

E. coli Juhl = test: Protective Dose50 in mice, E. coli Juhl; type: in vivo; details: Escherichia coli, read-out: PD50, E. coli Juhl
Method: (§2) Table 2, below, gives the Protective Dose50 (PD50) in mice for a number of the compounds of Formula I against selected microorganisms. Table 3 gives blood levels of various compounds of Formula I upon intramuscular administration of the test compounds to mice at a dosage of 20 mg/kg.

[2] = system: Cephalothinresistant E. coli (3 strains) and Kl. pneumoniae (2 strains); test: MIC, two-fold serial agar dilution, group (G-)-Ib; type: cell-based; details: Escherichia coli, read-out: Geometric Mean of MIC, (G-)-Ib, Mueller-Hinton agar; 5 strains
Method: as §1
(G-)Ib: Cephalothinresistant E. coli (3 strains) and Kl. pneumoniae (2

[3] = system: Penicillinresistant S. aureus (5 strains); test: MIC, two-fold serial agar dilution, group (G+)-Ib; type: cell-based; details: Staphylococcus aureus, read-out: Geometric Mean of MIC, (G+)-Ib
Method: as §1
(G+)Ib: Penicillinresistant S. aureus (5 strains)

S. aureus Smith = test: Protective Dose50 in mice, S. aureus Smith; type: in vivo; details: Staphylococcus aureus, read-out: PD50, S. aureus Smith
Method: as §2

[4] = system: Cephalothinsensitive E. coli (2 strains), Kl. pneumoniae (1 strain) and Pr. mirabilis (2 strains); test: MIC, two-fold serial agar dilution, group (G-)-Ia; type: cell-based; details: 5 strains
Method: as §1
(G+)Ia: Cephalothinsensitive E. coli (2 strains), Kl. pneumoniae (1
strain) and Pr. mirabilis (2 strains)

[5] = system: Ps. aeruginosa (7 strains); test: MIC, two-fold serial agar dilution, group (G-)-III; type: cell-based; details: Pseudomonas aeruginosa, Mueller-Hinton agar, read-out: Geometric Mean of MIC, (G-)-III
Method: as §1
(G-)III: Ps. aeruginosa (7 strains)

[6] = blood levels upon intramuscular administration to mice; type: in vivo; details: mouse, im, 20 mg/kg
Method: as §2

[7] = system: M. morganii (1 strain), Ent. cloacae (2 strains) and Ser. marcescens (2 strains); test: MIC, two-fold serial agar dilution, group (G-)-II; type: cell-based; details: Mueller-Hinton agar; 5 strains; read-out: Geometric Mean of MIC, (G-)-II
Method: as §1
(G-)II: M. morganii (1 strain), Ent. cloacae (2 strains) and Ser.

[8] = Mueller-Hinton agar, read-out: Geometric Mean of MIC, (G-)-Ia

CON=C(C(=O)NC1C(=O)N2C(C(=O)[O-])=C(C=CC[n+]3ccc4sc(N)nc4c3)CS[C@H]12)c1nsc(N)n1 (some centres unmarked) [Compound I-1C, 7-[2-(5-Amino-1,2,4-thiadiazol-3-yl)-2-methoxyiminoacetamido]-3-[3-(2-amino-5-thiazolo[4,5-c]pyridinio)-1-propen-1-yl]-3-cephem-4-carboxylate]
MIC [1]: 0.1 µg/mL (≈ 0.174 µM)
ED50 (E. coli Juhl): 0.013 mg/kg
MIC [2]: 0.033 µg/mL (≈ 0.0575 µM)
MIC [3]: 0.2 µg/mL (≈ 0.349 µM)
ED50 (S. aureus Smith): 0.22 mg/kg
MIC [4, 8]: 0.0071 µg/mL (≈ 0.0124 µM)
MIC [5]: 3.8 µg/mL (≈ 6.62 µM)
AUC [6]: 18000 ng·h/mL
Cmax [6]: 21000 ng/mL
half-life [6]: 32 min
MIC [7]: 0.087 µg/mL (≈ 0.152 µM)

CON=C(C(=O)NC1C(=O)N2C(C(=O)[O-])=C(/C=C/C[n+]3ccsc3C)CSC12)c1nsc(N)n1 (centres unmarked) [Compound I-1J, 7-[2-(5-Amino-1,2,4-thiadiazol-3-yl)-2-methoxyiminoacetamido]-3-[3-(2-methylthiazolio)-1-propen-1-yl]-3-cephem-4-carboxylate]
MIC ([1]; Mueller-Hinton agar, 5 strains): 0.17 µg/mL (≈ 0.326 µM)
ED50 (E. coli Juhl): 0.029 mg/kg
MIC [2]: 0.076 µg/mL (≈ 0.146 µM)
MIC ([3]; Mueller-Hinton agar, 5 strains): 0.35 µg/mL (≈ 0.671 µM)
ED50 (S. aureus Smith): 0.35 mg/kg
MIC [4, 8]: 0.025 µg/mL (≈ 0.0479 µM)
MIC [5]: 1.6 µg/mL (≈ 3.07 µM)
AUC [6]: 9700 ng·h/mL
Cmax [6]: 19000 ng/mL
half-life [6]: 16 min
MIC [7]: 0.15 µg/mL (≈ 0.288 µM)

CON=C(C(=O)NC1C(=O)N2C(C(=O)[O-])=C(/C=C/C[n+]3cccc(CO)c3)CSC12)c1nsc(N)n1 (centres unmarked) [Compound I-1K, 7-[2-(5-Amino-1,2,4-thiadiazol-3-yl)-2-methoxyiminoacetamido]-3-[3-(3-hydroxymethylpyridinio)-1-propenyl]-3-cephem-4-carboxylate]
MIC ([1]; Mueller-Hinton agar, 5 strains): 0.35 µg/mL (≈ 0.658 µM)
MIC [2]: 0.044 µg/mL (≈ 0.0828 µM)
MIC ([3]; Mueller-Hinton agar, 5 strains): 0.8 µg/mL (≈ 1.5 µM)
ED50 (S. aureus Smith): 0.53 mg/kg
MIC [4, 8]: 0.029 µg/mL (≈ 0.0546 µM)
MIC [5]: 3.5 µg/mL (≈ 6.58 µM)
AUC [6]: 14000 ng·h/mL
Cmax [6]: 24000 ng/mL
half-life [6]: 14 min
MIC [7]: 0.2 µg/mL (≈ 0.376 µM)

CNC(=O)c1cc[n+](C/C=C/C2=C(C(=O)[O-])N3C(=O)C(NC(=O)/C(=N\OC)c4nsc(N)n4)C3SC2)cc1 (centres unmarked) [Compound I-1M, 7-[2-(5-Amino-1,2,4-thiadiazol-3-yl)-2-(Z)-methoxyiminoacetamido]-3-[3-(4-N-methylcarbamoylpyridinio)-1-propenyl]-3-cephem-4-carboxylate]
MIC ([1]; Mueller-Hinton agar, 5 strains): 0.35 µg/mL (≈ 0.627 µM)
MIC [2]: 0.1 µg/mL (≈ 0.179 µM)
MIC ([3]; Mueller-Hinton agar, 5 strains): 0.7 µg/mL (≈ 1.25 µM)
ED50 (S. aureus Smith): 0.96 mg/kg
MIC [4, 8]: 0.029 µg/mL (≈ 0.0519 µM)
MIC [5]: 2.3 µg/mL (≈ 4.12 µM)
AUC [6]: 14000 ng·h/mL
Cmax [6]: 20000 ng/mL
half-life [6]: 23 min
MIC [7]: 0.17 µg/mL (≈ 0.304 µM)

CON=C(C(=O)NC1C(=O)N2C(C(=O)[O-])=C(C=CC[n+]3ccc(C(=O)O)cc3)CSC12)c1nsc(N)n1 (centres unmarked) [Compound I-1N, 7-[2-(5-Amino-1,2,4-thiadiazol-3-yl)-2-methoxyiminoacetamido]-3-[3-(4-carboxypyridinio)-1-propenyl]-3-cephem-4-carboxylate]
MIC ([1]; Mueller-Hinton agar, 5 strains): 1.2 µg/mL (≈ 2.2 µM)
MIC [2]: 0.066 µg/mL (≈ 0.121 µM)
MIC ([3]; Mueller-Hinton agar, 5 strains): 1.6 µg/mL (≈ 2.93 µM)
ED50 (S. aureus Smith): 2 mg/kg
MIC [4, 8]: 0.013 µg/mL (≈ 0.0238 µM)
MIC [5]: 5.7 µg/mL (≈ 10.4 µM)
AUC [6]: 18000 ng·h/mL
Cmax [6]: 24000 ng/mL
half-life [6]: 19 min
MIC [7]: 0.3 µg/mL (≈ 0.55 µM)

CCO/N=C(\C(=O)NC1C(=O)N2C(C(=O)[O-])=C(C=CC[n+]3ccc(C(=O)O)cc3)CSC12)c1nsc(N)n1 (centres unmarked) [Compound I-2N, 7-[2-(5-Amino-1,2,4-thiadiazol-3-yl)-2-(Z)-ethoxyiminoacetamido]-3-[3-(4-carboxypyridinio)-1-propenyl]-3-cephem-4-carboxylate]
ED50 (S. aureus Smith): 5 mg/kg
AUC [6]: 12000 ng·h/mL
Cmax [6]: 22000 ng/mL
half-life [6]: 20 min

C=CCON=C(C(=O)NC1C(=O)N2C(C(=O)[O-])=C(/C=C/C[n+]3ccc(C(N)=O)cc3)CSC12)c1nsc(N)n1 (centres unmarked) [Compound I-3H, 7-[2-(Amino-1,2,4-thiadiazol-3-yl)-2-(propen-3-yloxyimino)acetamido]-3-[3-(4-carbamoylpyridinio)-1-propenyl]-3-cephem-4-carboxylate]
MIC ([1]; Mueller-Hinton agar, 5 strains): 0.23 µg/mL (≈ 0.403 µM)
MIC [2]: 0.1 µg/mL (≈ 0.175 µM)
MIC ([3]; Mueller-Hinton agar, 5 strains): 0.4 µg/mL (≈ 0.701 µM)
MIC [4, 8]: 0.057 µg/mL (≈ 0.0999 µM)
MIC [5]: 1.9 µg/mL (≈ 3.33 µM)
AUC [6]: 25000 ng·h/mL
Cmax [6]: 19000 ng/mL
half-life [6]: 47 min
MIC [7]: 0.52 µg/mL (≈ 0.911 µM)

C#CCON=C(C(=O)NC1C(=O)N2C(C(=O)[O-])=C(/C=C/C[n+]3ccc(C(N)=O)cc3)CSC12)c1nsc(N)n1 (centres unmarked) [Compound I-4H, 7-[2-(5-Amino-1,2,4-thiadiazol-3-yl)-2-propargyloxyiminoacetamido]-3-[3-(4-carbamoylpyridinio)-1-propenyl]-3-cephem-4-carboxylate]
MIC ([1]; Mueller-Hinton agar, 5 strains): 0.26 µg/mL (≈ 0.457 µM)
MIC [2]: 0.11 µg/mL (≈ 0.193 µM)
MIC ([3]; Mueller-Hinton agar, 5 strains): 0.46 µg/mL (≈ 0.809 µM)
MIC [4, 8]: 0.066 µg/mL (≈ 0.116 µM)
MIC [5]: 2.6 µg/mL (≈ 4.57 µM)
AUC [6]: 16000 ng·h/mL
Cmax [6]: 27000 ng/mL
half-life [6]: 22 min
MIC [7]: 0.6 µg/mL (≈ 1.06 µM)

NC(=O)c1cc[n+](C/C=C/C2=C(C(=O)[O-])N3C(=O)C(NC(=O)C(=NOC4CCCC4)c4nsc(N)n4)C3SC2)cc1 (centres unmarked) [Compound I-5H, 7-[2-(5-Amino-1,2,4-thiadiazol-3-yl)-2-cyclopentyloxyiminoacetamido]-3-[3-(4-carbamoylpyridinio)-1-propenyl]-3-cephem-4-carboxylate]
MIC ([1]; Mueller-Hinton agar, 5 strains): 0.13 µg/mL (≈ 0.217 µM)
MIC [2]: 0.46 µg/mL (≈ 0.768 µM)
MIC ([3]; Mueller-Hinton agar, 5 strains): 0.4 µg/mL (≈ 0.668 µM)
MIC [4, 8]: 0.2 µg/mL (≈ 0.334 µM)
MIC [5]: 4.2 µg/mL (≈ 7.02 µM)
AUC [6]: 18000 ng·h/mL
Cmax [6]: 22000 ng/mL
half-life [6]: 32 min
MIC [7]: 2.1 µg/mL (≈ 3.51 µM)

CCO/N=C(\C(=O)NC1C(=O)N2C(C(=O)[O-])=C(/C=C/C[n+]3ccc(C(=O)O)cc3)CSC12)c1nsc(N)n1 (centres unmarked) [I-2N E, 7-[2-(5-Amino-1,2,4-thiadiazol-3-yl)-2-(Z)-ethoxyiminoacetamido]-3-[3-(4-carboxypyridinio)-1-propenyl]-3-cephem-4-carboxylate]
MIC ([1]; Mueller-Hinton agar, 5 strains): 1.2 µg/mL (≈ 2.14 µM)
MIC [2]: 0.11 µg/mL (≈ 0.197 µM)
MIC ([3]; Mueller-Hinton agar, 5 strains): 2.1 µg/mL (≈ 3.75 µM)
MIC [4, 8]: 0.016 µg/mL (≈ 0.0286 µM)
MIC [5]: 4.7 µg/mL (≈ 8.4 µM)
MIC [7]: 0.35 µg/mL (≈ 0.625 µM)

CCO/N=C(\C(=O)NC1C(=O)N2C(C(=O)[O-])=C(/C=C\C[n+]3ccc(C(=O)O)cc3)CSC12)c1nsc(N)n1 (centres unmarked) [I-2N Z, 7-[2-(5-Amino-1,2,4-thiadiazol-3-yl)-2-(Z)-ethoxyiminoacetamido]-3-[3-(4-carboxypyridinio)-1-propenyl]-3-cephem-4-carboxylate]
MIC ([1]; Mueller-Hinton agar, 5 strains): 1.4 µg/mL (≈ 2.5 µM)
MIC [2]: 0.15 µg/mL (≈ 0.268 µM)
MIC ([3]; Mueller-Hinton agar, 5 strains): 3.1 µg/mL (≈ 5.54 µM)
MIC [4, 8]: 0.044 µg/mL (≈ 0.0786 µM)
MIC [5]: 10 µg/mL (≈ 17.9 µM)
MIC [7]: 0.69 µg/mL (≈ 1.23 µM)

CON=C(C(=O)NC1C(=O)N2C(C(=O)[O-])=C(C=CC[n+]3ccccc3)CSC12)c1nsc(N)n1 (centres unmarked) [I-IB E/Z = 1/4, 7-[2-(5-Amino-1,2,4-thiadiazol-3-yl)-2-methoxyiminoacetamido]-3-[3-pyridinio-1-propen-1-yl]-3-cephem-4-carboxylate]
MIC ([1]; Mueller-Hinton agar, 5 strains): 0.35 µg/mL (≈ 0.698 µM)
MIC [2]: 0.11 µg/mL (≈ 0.219 µM)
MIC ([3]; Mueller-Hinton agar, 5 strains): 0.8 µg/mL (≈ 1.6 µM)
MIC ([4]; read-out: Geometric Mean of MIC, (G-)-Ia, Mueller-Hinton agar): 0.05 µg/mL (≈ 0.0997 µM)
MIC [5]: 3.5 µg/mL (≈ 6.98 µM)
MIC [7]: 0.35 µg/mL (≈ 0.698 µM)
